Measured values from patent US10457654B2 (GENENTECH, INC., priority 2017, dated 2019).
Structures can show the parent of a compound that is named as a salt.

Key:
hNav1.7 [1] = target: T1, hNav1.7 (Homo sapiens (Human), UniProt Q15858); experiment: Tritiated compound binding to membranes from cells expressing hNav1.7 and the β1 subunit, modified protocol (LBA, Ex. 243B); details: 300 pM [3H]compound, room temperature, read-out: Nav1.7 LBA (Ex. 243B) IC50
Target sequence in this assay (Q15858 whole entry, looked up): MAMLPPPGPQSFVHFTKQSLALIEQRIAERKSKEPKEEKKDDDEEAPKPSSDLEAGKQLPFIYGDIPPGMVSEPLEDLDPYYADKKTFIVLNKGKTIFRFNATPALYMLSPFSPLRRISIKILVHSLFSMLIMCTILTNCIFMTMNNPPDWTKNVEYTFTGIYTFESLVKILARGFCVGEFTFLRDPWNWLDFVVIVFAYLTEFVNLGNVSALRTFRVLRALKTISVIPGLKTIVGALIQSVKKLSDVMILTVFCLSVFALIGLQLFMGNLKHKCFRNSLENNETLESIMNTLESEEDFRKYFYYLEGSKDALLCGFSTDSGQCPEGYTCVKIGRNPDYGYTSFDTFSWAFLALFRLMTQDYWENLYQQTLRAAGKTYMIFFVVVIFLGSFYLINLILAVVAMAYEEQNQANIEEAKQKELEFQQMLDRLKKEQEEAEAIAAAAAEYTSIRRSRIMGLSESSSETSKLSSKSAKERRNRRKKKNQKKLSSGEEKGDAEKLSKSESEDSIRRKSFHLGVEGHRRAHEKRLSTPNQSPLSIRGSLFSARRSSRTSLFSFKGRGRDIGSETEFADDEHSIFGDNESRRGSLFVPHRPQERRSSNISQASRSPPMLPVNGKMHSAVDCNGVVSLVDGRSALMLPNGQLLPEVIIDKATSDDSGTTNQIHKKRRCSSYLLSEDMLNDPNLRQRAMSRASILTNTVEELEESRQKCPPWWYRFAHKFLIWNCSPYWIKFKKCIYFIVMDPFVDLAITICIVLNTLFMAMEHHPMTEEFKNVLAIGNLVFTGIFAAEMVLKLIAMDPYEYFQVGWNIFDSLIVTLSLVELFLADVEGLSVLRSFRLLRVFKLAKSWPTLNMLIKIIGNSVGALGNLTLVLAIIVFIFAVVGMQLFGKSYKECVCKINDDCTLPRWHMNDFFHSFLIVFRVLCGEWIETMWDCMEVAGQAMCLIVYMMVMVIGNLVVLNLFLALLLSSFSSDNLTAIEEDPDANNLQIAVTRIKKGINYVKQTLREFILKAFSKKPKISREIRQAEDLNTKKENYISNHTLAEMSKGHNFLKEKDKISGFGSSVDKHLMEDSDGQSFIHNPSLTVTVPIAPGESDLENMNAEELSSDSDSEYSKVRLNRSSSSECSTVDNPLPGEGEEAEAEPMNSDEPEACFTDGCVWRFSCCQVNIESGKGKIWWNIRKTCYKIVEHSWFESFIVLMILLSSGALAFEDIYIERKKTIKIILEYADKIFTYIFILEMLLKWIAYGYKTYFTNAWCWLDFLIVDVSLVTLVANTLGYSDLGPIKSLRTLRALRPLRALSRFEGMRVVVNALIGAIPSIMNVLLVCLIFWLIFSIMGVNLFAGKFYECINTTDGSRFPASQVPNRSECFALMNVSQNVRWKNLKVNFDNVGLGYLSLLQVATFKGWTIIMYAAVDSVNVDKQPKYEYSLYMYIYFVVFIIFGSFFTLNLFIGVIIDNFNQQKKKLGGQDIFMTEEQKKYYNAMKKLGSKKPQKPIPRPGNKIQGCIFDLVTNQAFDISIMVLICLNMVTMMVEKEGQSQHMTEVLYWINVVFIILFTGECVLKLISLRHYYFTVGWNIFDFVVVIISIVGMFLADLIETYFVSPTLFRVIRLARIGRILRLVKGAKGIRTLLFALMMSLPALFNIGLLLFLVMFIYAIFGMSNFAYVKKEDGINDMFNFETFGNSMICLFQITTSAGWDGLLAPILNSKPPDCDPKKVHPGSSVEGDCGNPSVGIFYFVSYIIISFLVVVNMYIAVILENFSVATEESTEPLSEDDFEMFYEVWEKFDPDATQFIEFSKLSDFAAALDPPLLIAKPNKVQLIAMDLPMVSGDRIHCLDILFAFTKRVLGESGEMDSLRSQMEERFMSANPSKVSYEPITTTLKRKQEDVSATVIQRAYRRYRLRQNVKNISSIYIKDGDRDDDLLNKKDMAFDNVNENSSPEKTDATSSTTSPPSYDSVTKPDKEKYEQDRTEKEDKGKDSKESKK
Target sequence in this assay (Q07699 whole entry partner, looked up): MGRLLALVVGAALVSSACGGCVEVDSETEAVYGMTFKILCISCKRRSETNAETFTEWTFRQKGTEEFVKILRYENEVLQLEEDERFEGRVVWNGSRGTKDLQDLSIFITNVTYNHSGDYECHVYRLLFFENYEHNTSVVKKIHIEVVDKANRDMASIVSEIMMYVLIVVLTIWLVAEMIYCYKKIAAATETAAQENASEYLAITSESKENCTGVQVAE

hNav1.7 [2] = target: T1, hNav1.7; experiment: Patch voltage clamp electrophysiology assay (EP), Syncropatch 384PE, CHO cells expressing Nav1.7; format: cell-based; details: holding potential -50 mV; […] compound incubation; read-out: EP_SP hNav1.7 (Ex. 243B) IC50
Summary of the method: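 Automated whole-cell patch clamp on CHO cells stably expressing human Nav1.7, CsCl/EGTA internal and NMDG/80 mM Na+ external (pH 7.4). From −50 mV holding, −10 mV step, 20 ms recovery at −150 mV, then second −10 mV pulse where block is measured; inhibition after 7.5 min compound incubation.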
Target sequence in this assay (Q15858 other isoform, or with tags, fused parts or gaps): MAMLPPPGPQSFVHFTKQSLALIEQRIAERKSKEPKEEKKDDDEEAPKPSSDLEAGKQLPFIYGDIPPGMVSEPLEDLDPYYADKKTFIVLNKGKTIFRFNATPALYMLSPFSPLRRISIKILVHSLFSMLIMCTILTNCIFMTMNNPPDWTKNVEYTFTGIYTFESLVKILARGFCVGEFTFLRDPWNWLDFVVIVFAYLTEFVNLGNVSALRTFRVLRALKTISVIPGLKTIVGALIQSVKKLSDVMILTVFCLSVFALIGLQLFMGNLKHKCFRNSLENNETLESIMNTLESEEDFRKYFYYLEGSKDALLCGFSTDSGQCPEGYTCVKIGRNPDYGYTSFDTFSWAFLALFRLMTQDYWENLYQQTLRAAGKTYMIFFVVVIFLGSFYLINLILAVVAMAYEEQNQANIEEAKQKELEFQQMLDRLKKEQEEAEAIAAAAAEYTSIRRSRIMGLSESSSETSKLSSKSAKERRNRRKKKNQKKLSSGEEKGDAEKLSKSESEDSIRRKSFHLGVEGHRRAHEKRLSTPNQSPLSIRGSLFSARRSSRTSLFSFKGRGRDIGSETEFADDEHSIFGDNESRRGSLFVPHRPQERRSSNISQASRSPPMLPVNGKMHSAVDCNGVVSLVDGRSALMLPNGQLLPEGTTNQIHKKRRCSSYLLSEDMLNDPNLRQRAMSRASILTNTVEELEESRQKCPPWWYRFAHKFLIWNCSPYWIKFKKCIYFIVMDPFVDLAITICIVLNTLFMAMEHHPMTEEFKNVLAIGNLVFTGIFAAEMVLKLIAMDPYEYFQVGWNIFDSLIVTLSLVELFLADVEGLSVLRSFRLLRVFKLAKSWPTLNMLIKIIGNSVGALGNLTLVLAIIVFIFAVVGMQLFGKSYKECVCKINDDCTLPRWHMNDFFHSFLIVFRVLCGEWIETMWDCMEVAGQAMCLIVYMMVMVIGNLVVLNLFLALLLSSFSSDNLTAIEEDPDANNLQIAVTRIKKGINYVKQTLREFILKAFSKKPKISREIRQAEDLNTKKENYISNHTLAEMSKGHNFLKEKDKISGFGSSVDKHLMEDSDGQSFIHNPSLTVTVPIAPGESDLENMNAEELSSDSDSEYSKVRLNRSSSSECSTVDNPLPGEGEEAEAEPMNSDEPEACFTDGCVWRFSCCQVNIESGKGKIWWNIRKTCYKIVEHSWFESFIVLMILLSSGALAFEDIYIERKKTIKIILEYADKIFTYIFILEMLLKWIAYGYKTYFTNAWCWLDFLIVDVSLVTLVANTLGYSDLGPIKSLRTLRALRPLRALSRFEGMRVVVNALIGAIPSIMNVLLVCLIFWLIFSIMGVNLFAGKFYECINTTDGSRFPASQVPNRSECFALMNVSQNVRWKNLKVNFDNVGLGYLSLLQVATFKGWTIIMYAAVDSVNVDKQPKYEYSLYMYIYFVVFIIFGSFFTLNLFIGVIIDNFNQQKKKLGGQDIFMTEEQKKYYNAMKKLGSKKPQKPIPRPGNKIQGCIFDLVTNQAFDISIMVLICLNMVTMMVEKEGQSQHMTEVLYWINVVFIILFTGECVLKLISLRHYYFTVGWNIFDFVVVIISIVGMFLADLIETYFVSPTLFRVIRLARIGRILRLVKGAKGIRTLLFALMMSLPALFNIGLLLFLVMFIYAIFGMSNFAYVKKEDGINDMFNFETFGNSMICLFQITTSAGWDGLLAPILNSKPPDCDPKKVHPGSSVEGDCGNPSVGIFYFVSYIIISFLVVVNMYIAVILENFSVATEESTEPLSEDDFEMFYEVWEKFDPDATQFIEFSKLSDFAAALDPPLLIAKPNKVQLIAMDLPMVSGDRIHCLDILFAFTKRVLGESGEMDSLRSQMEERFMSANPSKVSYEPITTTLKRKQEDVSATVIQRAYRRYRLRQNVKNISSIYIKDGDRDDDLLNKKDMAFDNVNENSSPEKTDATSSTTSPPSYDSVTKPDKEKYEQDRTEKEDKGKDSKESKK

Compound: CN(c1cnn(C)c1)[C@H]1CCCC[C@@H]1Nc1cc(F)c(S(=O)(=O)Nc2nccs2)cc1Cl [Example 140, 5-chloro-2-fluoro-4-(((1S,2S)-2-(methyl(1-methyl-1H-pyrazol-4-yl)amino)cyclohexyl)amino)-N-(thiazol-2-yl)benzenesulfonamide]
- IC50 (hNav1.7 [1]): 170 nM
- IC50 (hNav1.7 [2]): 13.2 nM

Compound: CN1CC(N(CC(F)(F)F)[C@H]2CCCC[C@@H]2Nc2cc(F)c(S(=O)(=O)Nc3nccs3)cc2Cl)C1 [Example 190, 5-Chloro-2-fluoro-4-(((1S,2S)-2-((1-methylazetidin-3-yl)(2,2,2-trifluoroethyl)amino)cyclohexyl)amino)-N-(thiazol-2-yl)benzenesulfonamide]
- IC50 (hNav1.7 [1]): 478 nM
- IC50 (hNav1.7 [2]): 41.5 nM

Compound: CN[C@H]1C[C@@H](c2cccc(C(F)(F)F)c2)CC[C@@H]1Nc1cc(F)c(S(=O)(=O)Nc2ccncn2)cc1Cl [Example 226, 5-Chloro-2-fluoro-4-(((1S,2S,4S)-2-(methylamino)-4-(3-(trifluoromethyl)phenyl)cyclohexyl)amino)-N-(pyrimidin-4-yl)benzenesulfonamide]
- IC50 (hNav1.7 [1]): 1.45 nM
- IC50 (hNav1.7 [2]): 1.04 nM

Compound: CN(C)[C@H]1CC=C(C(F)(F)F)C[C@@H]1Nc1cc(F)c(S(=O)(=O)Nc2nccs2)cc1Cl [Example 130, 5-chloro-4-(((1S,6S)-6-(dimethylamino)-3-(trifluoromethyl)cyclohex-3-en-1-yl)amino)-2-fluoro-N-(thiazol-2-yl)benzenesulfonamide]
- IC50 (hNav1.7 [1]): 75.9 nM
- IC50 (hNav1.7 [2]): 9.92 nM

Compound: CN1CC[C@@H](C(=O)N(C)[C@H]2CCCC[C@@H]2Nc2cc(F)c(S(=O)(=O)Nc3nccs3)cc2Cl)C1 [Example 200, (R)—N-((1S,2S)-2-((2-chloro-5-fluoro-4-(N-(thiazol-2-yl)sulfamoyl)phenyl)amino)cyclohexyl)-N,1-dimethylpyrrolidine-3-carboxamide]
- IC50 (hNav1.7 [1]): 150 nM
- IC50 (hNav1.7 [2]): 16.7 nM

Compound: CN(C)[C@H]1C[C@@H]2[C@H](C[C@@H]1Nc1cc(F)c(S(=O)(=O)Nc3nccs3)cc1Cl)C2(Cl)Cl [Example 194, 5-Chloro-4-(((1S,3S,4S,6R)-7,7-dichloro-4-(dimethylamino)bicyclo[4.1.0]heptan-3-yl)amino)-2-fluoro-N-(thiazol-2-yl)benzenesulfonamide formate]
- IC50 (hNav1.7 [1]): 2000 nM
- IC50 (hNav1.7 [2]): 400 nM

Compound: O=S(=O)(Nc1nccs1)c1cc(Cl)c(N[C@H]2CCCC[C@@H]2N2CCCC2CO)cc1F (stereo in doubt) [Example 133, 5-chloro-2-fluoro-4-(((1S,2S)-2-((S)-2-(hydroxymethyl)pyrrolidin-1-yl)cyclohexyl)amino)-N-(thiazol-2-yl)benzenesulfonamide]
- IC50 (hNav1.7 [1]): 20.8 nM
- IC50 (hNav1.7 [2]): 3.2 nM

Compound: CN(C)[C@H]1C[C@@H](c2cccc(C(F)(F)F)c2)CC[C@@H]1Nc1cc(F)c(S(=O)(=O)Nc2ccncn2)cc1C1CCC1 [Example 236, 5-cyclobutyl-4-(((1S,2S,4S)-2-(dimethylamino)-4-(3-(trifluoromethyl)phenyl)cyclohexyl)amino)-2-fluoro-N-(pyrimidin-4-yl)benzenesulfonamide]
- IC50 (hNav1.7 [1]): 0.593 nM
- IC50 (hNav1.7 [2]): 1.6 nM

Compound: CN(C)[C@H]1C[C@H]2[C@@H](C[C@@H]1Nc1cc(F)c(S(=O)(=O)Nc3nccs3)cc1Cl)C2(Cl)Cl [Example 196, 5-Chloro-4-(((1R,3S,4S,6S)-7,7-dichloro-4-(dimethylamino)bicyclo[4.1.0]heptan-3-yl)amino)-2-fluoro-N-(thiazol-2-yl)benzenesulfonamide formate]
- IC50 (hNav1.7 [1]): 664 nM
- IC50 (hNav1.7 [2]): 120 nM

Compound: O=S(=O)(Nc1cccc(F)n1)c1cc(Cl)c(N[C@H]2CCCC[C@@H]2N2C[C@@H]3[C@@H](CO)[C@@H]3C2)cc1F [Example 185]
- IC50 (hNav1.7 [1]): 771 nM
- IC50 (hNav1.7 [2]): 36.2 nM

Compound: O=S(=O)(Nc1nccs1)c1cc(Cl)c(N[C@H]2CCCC[C@@H]2N2CCC[C@H](CO)C2)cc1F [Example 168, 5-chloro-2-fluoro-4-(((1S,2S)-2-((S)-3-(hydroxymethyl)piperidin-1-yl)cyclohexyl)amino)-N-(thiazol-2-yl)benzenesulfonamide formate]
- IC50 (hNav1.7 [1]): 40 nM
- IC50 (hNav1.7 [2]): 5.16 nM

Compound: N#CC1CCN([C@H]2CCCC[C@@H]2Nc2cc(F)c(S(=O)(=O)Nc3nccs3)cc2Cl)CC1 [Example 149, 5-Chloro-4-(((1S,2S)-2-(4-cyanopiperidin-1-yl)cyclohexyl)amino)-2-fluoro-N-(thiazol-2-yl)benzenesulfonamide formate]
- IC50 (hNav1.7 [1]): 520 nM
- IC50 (hNav1.7 [2]): 12.5 nM

Compound: CN(C)[C@H]1CCC(c2cccc(C(F)(F)F)c2)C[C@@H]1Nc1cc(F)c(S(=O)(=O)Nc2ccncn2)cc1Cl (stereo in doubt) [Example 120, 5-chloro-4-(((1S,2S,5R)-2-(dimethylamino)-5-(3-(trifluoromethyl)phenyl)cyclohexyl)amino)-2-fluoro-N-(pyrimidin-4-yl)benzenesulfonamide]
- IC50 (hNav1.7 [1]): 26.3 nM
- IC50 (hNav1.7 [2]): 4.1 nM

Compound: CN(C1CCC1)[C@H]1C[C@@H](C(F)(F)F)CC[C@@H]1Nc1cc(F)c(S(=O)(=O)Nc2ccncn2)cc1Cl [Example 180, 5-chloro-4-(((1S,2S,4S)-2-(cyclobutyl(methyl)amino)-4-(trifluoromethyl)cyclohexyl)amino)-2-fluoro-N-(pyrimidin-4-yl)benzenesulfonamide]
- IC50 (hNav1.7 [1]): 666 nM
- IC50 (hNav1.7 [2]): 49.5 nM

Compound: CN(CC(O)C(F)F)[C@H]1CCCC[C@@H]1Nc1cc(F)c(S(=O)(=O)Nc2nccs2)cc1Cl (single isomer, unassigned) [Example 126]
- IC50 (hNav1.7 [1]): 87.6 nM
- IC50 (hNav1.7 [2]): 9.25 nM

Compound: O=S(=O)(Nc1cccc(F)n1)c1cc(Cl)c(N[C@H]2CCCC[C@@H]2N2CC3CC3C2)cc1F (stereo partly drawn) [Example 105, 4-(((1S,2S)-2-(3-azabicyclo[3.1.0]hexan-3-yl)cyclohexyl)amino)-5-chloro-2-fluoro-N-(6-fluoropyridin-2-yl)benzenesulfonamide]
- IC50 (hNav1.7 [1]): 31.3 nM
- IC50 (hNav1.7 [2]): 4.5 nM

Compound: O=S(=O)(Nc1nccs1)c1cc(Cl)c(N[C@H]2CCCC[C@@H]2N2CCC[C@H](O)C2)cc1F [Example 153, 5-chloro-2-fluoro-4-(((1S,2S)-2-((S)-3-hydroxypiperidin-1-yl)cyclohexyl)amino)-N-(thiazol-2-yl)benzenesulfonamide]
- IC50 (hNav1.7 [1]): 17.1 nM
- IC50 (hNav1.7 [2]): 4.07 nM

Compound: O=S(=O)(Nc1ccncn1)c1cc(Cl)c(N[C@H]2CC[C@H](c3cccc(C(F)(F)F)c3)C[C@@H]2N2CCCC2)cc1F [Example 242, 5-chloro-2-fluoro-N-(pyrimidin-4-yl)-4-(((1S,2S,4S)-2-(pyrrolidin-1-yl)-4-(3 (trifluoromethyl)phenyl)cyclohexyl)amino)benzenesulfonamide]
- IC50 (hNav1.7 [1]): 0.428 nM
- IC50 (hNav1.7 [2]): 0.182 nM

Compound: O=S(=O)(Nc1cccc(F)n1)c1cc(Cl)c(N[C@@H]2CCCC[C@H]2N2C[C@@H]3[C@@H](CO)[C@@H]3C2)cc1F [Example 184]
- IC50 (hNav1.7 [1]): 2000 nM
- IC50 (hNav1.7 [2]): 4960 nM

Compound: N#C[C@H]1CCN([C@H]2CCCC[C@@H]2Nc2cc(F)c(S(=O)(=O)Nc3nccs3)cc2Cl)C1 [Example 162, 5-Chloro-4-(((1S,2S)-2-((S)-3-cyanopyrrolidin-1-yl)cyclohexyl)amino)-2-fluoro-N-(thiazol-2-yl)benzenesulfonamide formate]
- IC50 (hNav1.7 [1]): 248 nM
- IC50 (hNav1.7 [2]): 8.55 nM

Compound: O=S(=O)(Nc1nccs1)c1cc(Cl)c(N[C@H]2CCCC[C@@H]2N2CCC(O)CC2)cc1F [Example 131, 5-chloro-2-fluoro-4-(((1 S,2S)-2-(4-hydroxypiperidin-1-yl)cyclohexyl)amino)-N-(thiazol-2-yl)benzenesulfonamide]
- IC50 (hNav1.7 [1]): 201 nM
- IC50 (hNav1.7 [2]): 5.95 nM

Compound: CN1CCC[C@@H]1C(=O)N(C)[C@H]1CCCC[C@@H]1Nc1cc(F)c(S(=O)(=O)Nc2nccs2)cc1Cl [Example 204, (R)—N-((1S,2S)-2-((2-Chloro-5-fluoro-4-(N-(thiazol-2-yl)sulfamoyl)phenyl)amino)cyclohexyl)-N,1-dimethylpyrrolidine-2-carboxamide]
- IC50 (hNav1.7 [1]): 308 nM
- IC50 (hNav1.7 [2]): 20.5 nM

Compound: CN(C)[C@H]1C[C@@H](c2cccc(C(F)(F)F)c2)CC[C@@H]1Nc1cc(F)c(S(=O)(=O)Nc2ccncn2)cc1C1CC1 [Example 230, 5-Cyclopropyl-4-(((1S,2S,4S)-2-(dimethylamino)-4-(3-(trifluormethyl)phenyl)cyclohexyl)amino)-2-fluoro-N-(pyrimidin-4-yl)benzenesulfonamide formate]
- IC50 (hNav1.7 [1]): 0.627 nM
- IC50 (hNav1.7 [2]): 1.52 nM

Compound: N#C[C@@H]1CCN([C@H]2CCCC[C@@H]2Nc2cc(F)c(S(=O)(=O)Nc3nccs3)cc2Cl)C1 [Example 161, 5-Chloro-4-(((1S,2S)-2-((R)-3-cyanopyrrolidin-1-yl)cyclohexyl)amino)-2-fluoro-N-(thiazol-2-yl)benzenesulfonamide formate]
- IC50 (hNav1.7 [1]): 187 nM
- IC50 (hNav1.7 [2]): 3.03 nM

Compound: CN(C)[C@@H]1C[C@H]2[C@@H](C[C@H]1Nc1cc(F)c(S(=O)(=O)Nc3nccs3)cc1Cl)C2(Cl)Cl [Example 197, 5-Chloro-4-(((1R,3R,4R,6S)-7,7-dichloro-4-(dimethylamino)bicyclo[4.1.0]heptan-3-yl)amino)-2-fluoro-N-(thiazol-2-yl)benzenesulfonamide formate]
- IC50 (hNav1.7 [1]): 38 nM
- IC50 (hNav1.7 [2]): 3.85 nM

Compound: CN(C)[C@H]1C[C@@H](c2cccc(C(F)(F)F)c2)CC[C@@H]1Nc1cc(F)c(S(=O)(=O)Nc2ccncn2)cc1Br [Example 227, 5-Bromo-4-(((1S,2S,4S)-2-(dimethylamino)-4-(3-(trifluoromethyl)phenyl)cyclohexyl)amino)-2-fluoro-N-(pyrimidin-4-yl)benzenesulfonamide]
- IC50 (hNav1.7 [1]): 0.69 nM
- IC50 (hNav1.7 [2]): 1.19 nM

Compound: CN(C)[C@H]1C[C@@H](c2cccc(C(F)(F)F)c2)CC[C@@H]1Nc1cc(F)c(S(=O)(=O)Nc2nccs2)cc1Cl [Example 129, 5-chloro-4-(((1S,2S,4S)-2-(dimethylamino)-4-(3-(trifluoromethyl)phenyl)cyclohexyl)amino)-2-fluoro-N-(thiazol-2-yl)benzenesulfonamide formate]
- IC50 (hNav1.7 [1]): 0.255 nM
- IC50 (hNav1.7 [2]): 0.372 nM
